From patent publication EP3910064A1, “PROCESS OF OBTAINING A PHLOROTANNIN-ENRICHED EXTRACT HAVING ANTI-ENZYMATIC ACTION FOR USE IN DERMATOLOGY” (Instituto Politécnico De Leiria, priority 2020, dated 2021)

Target: collagenase
Assay: Collagenase inhibition (analytical kit)
Type: biochemical
Settings: confidence interval in parentheses
From the text: Table 2 - Inhibitory effect (IC50) of the different extracts obtained based on the interval of concentrations tested on the enzymes collagenase and elastase.

SMILES: O=C(O[C@@H]1Cc2c(O)cc(O)cc2O[C@@H]1c1cc(O)c(O)c(O)c1)c1cc(O)c(O)c(O)c1 [Epigallocatechin gallate]
- IC50 Collagenase: 4.8 (4.10-5.50) µg/mL
